Laboratory results as given in PubChem BioAssay AID248 (DTP/NCI, 2004).
Inconclusive results and toxic doses are left out. No stated cut-off is given here; in the data, active means T/C of 150% or more; inactive means T/C below 125%.

System: L1210 leukemia ip in BDF1 mice, survival T/C
Test: NCI In Vivo Anticancer Drug Screen. Data for tumor model L1210 Leukemia (intraperitoneal) in B6D2F1 (BDF1) mice
Conditions: endpoint: mean survival time, higher = longer survival
Summary of the method: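 Transplanted-tumor mice were given test agent; controls received vehicle only. Survival readings from the two groups were divided (treated over control).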

Measured: T/C

CCCCN(C)/N=N/c1nc[nH]c1C(=O)OC
inactive: dose: 33.0 mg/kg/injection, schedule: Q01DX015 (ip), vehicle: carboxymethylcellulose (CMC) 108 % of control | dose: 45.0 mg/kg/injection, schedule: Q01DX015 (ip), vehicle: carboxymethylcellulose (CMC) 117 % of control | dose: 60.0 mg/kg/injection, schedule: Q01DX015 (ip), vehicle: carboxymethylcellulose (CMC) 95 % of control | dose: 75.0 mg/kg/injection, schedule: Q01DX015 (ip), vehicle: carboxymethylcellulose (CMC) 86 % of control | dose: 100.0 mg/kg/injection, schedule: Q01DX001 (ip), vehicle: carboxymethylcellulose (CMC) 98 % of control | dose: 200.0 mg/kg/injection, schedule: Q01DX001 (ip), vehicle: carboxymethylcellulose (CMC) 104 % of control | dose: 400.0 mg/kg/injection, schedule: Q01DX001 (ip), vehicle: carboxymethylcellulose (CMC) 124 % of control

CC(=O)NCc1cccc([N+](=O)[O-])c1
inactive: dose: 25.0 mg/kg/injection, schedule: Q01DX005 (ip), vehicle: saline 111 % of control | dose: 100.0 mg/kg/injection, schedule: Q01DX005 (ip), vehicle: saline 102 % of control

CN1CCN(C(=O)OCCOCCOC(=O)N2CCN(C)CC2)CC1
inactive: dose: 150.0 mg/kg/injection, schedule: Q01DX Z (ip), vehicle: saline 108 % of control | dose: 230.0 mg/kg/injection, schedule: Q01DX Z (ip), vehicle: saline 93 % of control | dose: 350.0 mg/kg/injection, schedule: Q01DX Z (ip), vehicle: saline 100 % of control

Cn1c(=O)c2c(nc(C3CC3)n2C)n(C)c1=O
inactive: dose: 50.0 mg/kg/injection, schedule: Q01DX001 (ip), vehicle: other 112 % of control | dose: 100.0 mg/kg/injection, schedule: Q01DX001 (ip), vehicle: other 95 % of control | dose: 200.0 mg/kg/injection, schedule: Q01DX001 (ip), vehicle: other 95 % of control

O=C(Nc1cccc2c(NC(=O)c3ccccc3)cccc12)c1ccccc1
inactive: dose: 100.0 mg/kg/injection, schedule: Q01DX001 (ip), vehicle: saline with Tween-80 92 % of control | dose: 200.0 mg/kg/injection, schedule: Q01DX001 (ip), vehicle: saline with Tween-80 91 % of control | dose: 400.0 mg/kg/injection, schedule: Q01DX001 (ip), vehicle: saline with Tween-80 89 % of control

CN(C)CCC(=O)c1ccc2ccccc2c1
inactive: dose: 9.38 mg/kg/injection, schedule: Q01DX001 (ip), vehicle: saline 100 % of control | dose: 18.75 mg/kg/injection, schedule: Q01DX001 (ip), vehicle: saline 101 % of control | dose: 37.5 mg/kg/injection, schedule: Q01DX001 (ip), vehicle: saline 105 % of control

O/N=C1\C(Cl)C2CC1C1C=CCC12 (stereo unspecified)
inactive: dose: 25.0 mg/kg/injection, schedule: Q04DX003 (ip), vehicle: Klucel (hydroxypropylcellulose) (HPC) 91 % of control

ON=C(c1ccccn1)c1ccccn1
inactive: dose: 100.0 mg/kg/injection, schedule: Q01DX009 (ip), vehicle: gum acacia 93 % of control | dose: 100.0 mg/kg/injection, schedule: Q04DX003 (ip), vehicle: Klucel (hydroxypropylcellulose) (HPC) 97 % of control | dose: 200.0 mg/kg/injection, schedule: Q01DX009 (ip), vehicle: gum acacia 88 % of control | dose: 200.0 mg/kg/injection, schedule: Q04DX003 (ip), vehicle: Klucel (hydroxypropylcellulose) (HPC) 93 % of control | dose: 400.0 mg/kg/injection, schedule: Q01DX009 (ip), vehicle: gum acacia 98 % of control | dose: 400.0 mg/kg/injection, schedule: Q04DX003 (ip), vehicle: Klucel (hydroxypropylcellulose) (HPC) 95 % of control

CC(=O)ON(C(C)=O)c1ccc(S(=O)(=O)c2ccc(N(OC(C)=O)C(C)=O)cc2)cc1
inactive: dose: 100.0 mg/kg/injection, schedule: Q04DX003 (ip), vehicle: saline 97 % of control | dose: 200.0 mg/kg/injection, schedule: Q04DX003 (ip), vehicle: saline 103 % of control | dose: 400.0 mg/kg/injection, schedule: Q04DX003 (ip), vehicle: saline 103 % of control

CC(Cl)CCN1CCCCC1 (stereo unspecified)
inactive: dose: 50.0 mg/kg/injection, schedule: Q01DX001 (ip), vehicle: saline 104 % of control

O=[N+]([O-])c1ccc(O)c(N=Cc2ccccc2)c1
inactive: dose: 100.0 mg/kg/injection, schedule: Q01DX001 (ip), vehicle: saline 97 % of control | dose: 200.0 mg/kg/injection, schedule: Q01DX001 (ip), vehicle: saline 96 % of control | dose: 400.0 mg/kg/injection, schedule: Q01DX001 (ip), vehicle: saline 100 % of control

CN(C)Cc1cc(C(C)(C)C)ccc1-c1ccc(C(C)(C)C)cc1CN(C)C
inactive: dose: 12.5 mg/kg/injection, schedule: Q01DX009 (ip), vehicle: gum acacia 91 % of control | dose: 25.0 mg/kg/injection, schedule: Q01DX009 (ip), vehicle: gum acacia 96 % of control | dose: 50.0 mg/kg/injection, schedule: Q01DX009 (ip), vehicle: gum acacia 86 % of control

COc1cccc(NC(=O)NCCN(C)c2ccccc2)c1
inactive: dose: 100.0 mg/kg/injection, schedule: Q01DX009 (ip), vehicle: Klucel (hydroxypropylcellulose) (HPC) 104 % of control | dose: 200.0 mg/kg/injection, schedule: Q01DX009 (ip), vehicle: Klucel (hydroxypropylcellulose) (HPC) 88 % of control | dose: 400.0 mg/kg/injection, schedule: Q01DX009 (ip), vehicle: Klucel (hydroxypropylcellulose) (HPC) 92 % of control
